Literature values in patent publication US20090012284A1, “Process for the Preparation of a Piroxicam: Betacyclodextrin Inclusion Compound” (Chiesi Farmaceutici S.p.A., priority 2004, published 2009).

Details: pH 5, 37° C.

CN1C(C(=O)Nc2ccccn2)=C(O)c2ccccc2S1(=O)=O [Piroxicam]
solubility in water: 0.003%
